Data on three molecules can be found in publication PMC5041959, “A high-content EMT screen identifies multiple receptor tyrosine kinase inhibitors with activity on TGFβ receptor” (Oncotarget, 2016).

For one data set, the target named is PDGFRB (Homo sapiens, UniProt P09619). The experiment in a line: Biochemical kinase profiling (33PanQinase radiometric assay).
Another data set concerns the target FGFR3 (Homo sapiens, UniProt P22607). Described as above.
The target in a further data set is FGFR1 (Homo sapiens, UniProt P11362). Described as above.
The target in another data set is PDGFRA (Homo sapiens, UniProt P16234). The description is as above.
Data set [1] relates to SMAD3 phosphorylation (TGFBR activity). Description: Quantification of SMAD3 phosphorylation in TGFβ-treated NMuMG cells (immunoblot, LI-COR). Format: cell-based, murine. Conditions: one day TGFβ plus inhibitor. How it is done: NMuMG cells plated the day before were treated for one day with TGFβ and DMSO or an inhibitor as described in the figure legends. Cells were washed with PBS and lyzed in RIPA buffer (150 mM NaCl, 2 mM MgCl, 2 mM CaCl2, 0.5% Na-deoxycholate, 10% glycerol, 1% NP-40, 0.1% SDS, 50 mM Tris pH8 supplementary with 1 mM DTT, 10 mM NaF, 1 mM sodium orthovanadate and protease inhibitor cocktail (Roche)). The proteins were resolved using SDS-PAGE and transferred to PVDF membrane. For quantitative analysis of SMAD phosphorylation, the membrane was probed with p-SMAD2/3 and GAPDH specific primary antibodies followed by fluorescent secondary antibodies (LI-COR Biosciences). The signal was captured and quantified with the Odyssey CLx Imaging system and ImageJ software form 3 independent experiments.
A general note: A western blot detects proteins with antibodies after separation by electrophoresis.

Data set [2] deals with NMuMG cells. The experiment in a line: High-content microscopy EMT screen in TGFβ-treated NMuMG cells (FA, SF, FN, cell count). Format: cell-based, murine.
The next data set addresses EGFR (Homo sapiens, UniProt P00533). Description: Biochemical kinase profiling (33PanQinase radiometric assay).
Data set [3] has as its system NMuMG cells. Description: E-cadherin, ZO1 and vimentin immunofluorescence in TGFβ-treated NMuMG cells. The format is cell-based, murine. To be noted: four days TGFβ plus inhibitor. Here is the method: NMuMG and Py2T cells were trypsinized, washed, seeded at 1000 cells/well, resuspended in 40 μl growth medium with a Multidrop-384 (Titertek) in 384-well microplates (Greiner, 781091), and grown overnight at 37°C, 5% CO2. The next day, 111 μl growth medium was added with the Multidrop-384 to 1 μl of the 2 mM library compounds of which 10 μl was transferred with a 384-well pipettor (VPrep, Agilent, US) to the cell assay plate and equilibrated for 10 min (final compound concentration 3 μM). For screenings at 300 nM or 30 nM, the compounds were diluted 1:10 or 1:100 in growth medium, respectively, before use. […]
Cells were imaged using the automated epifluorescence microscope ImageXpress Micro from Molecular Devices (Sunnyvale CA, USA) equipped with a plate-loading robot (CRS Catalyst, Thermo Scientific). […] The images were automatically analyzed by MetaXpress and segmented into sub-cellular structures based on morphological features such as object size and fluorescence distribution. Fluorescence distribution was a measure of the threshold intensity above local background and was adjusted for all parameters (nuclei, FA, SF and FN) by means of the respective positive and negative controls to compensate for inter-experimental variations between the different screening batches. […] Vimentin was quantified similar to SF and FN using the Angiogenesis module. […]

In another data set the test system is Py2T cells. Description: High-content microscopy EMT assay in TGFβ-treated Py2T breast cancer cells. Format: cell-based, murine.
For another data set, the target named is SRC (Homo sapiens, UniProt P12931). Description: Biochemical kinase profiling (33PanQinase radiometric assay).
For the next data set, the target named is FGFR2 (Homo sapiens, UniProt P21802). The data set is described as above.
Another data set has as its target FGFR4 (Homo sapiens, UniProt P22455). Described as above.
For data set [4] the following is noted: cited from earlier work.
The next data set relates to ROCK. Description: ROCK cellular assay (MLC Thr18/Ser19 phosphorylation ELISA in A7r5 cells). The format is cell-based, rat. To be noted: 90 min compound. Background: ELISA stands for enzyme-linked immunosorbent assay.
The mark [5] stands for this setting: Mus musculus, read-out: CCI IC50 (cell count increase).
The mark [6] stands for this setting: Mus musculus, read-out: Emax (maximal effect on cell count).

The structures appear in SMILES notation. Like-named read-outs stand apart in the source and are kept apart here.

Sequence of SRC (P12931 whole entry): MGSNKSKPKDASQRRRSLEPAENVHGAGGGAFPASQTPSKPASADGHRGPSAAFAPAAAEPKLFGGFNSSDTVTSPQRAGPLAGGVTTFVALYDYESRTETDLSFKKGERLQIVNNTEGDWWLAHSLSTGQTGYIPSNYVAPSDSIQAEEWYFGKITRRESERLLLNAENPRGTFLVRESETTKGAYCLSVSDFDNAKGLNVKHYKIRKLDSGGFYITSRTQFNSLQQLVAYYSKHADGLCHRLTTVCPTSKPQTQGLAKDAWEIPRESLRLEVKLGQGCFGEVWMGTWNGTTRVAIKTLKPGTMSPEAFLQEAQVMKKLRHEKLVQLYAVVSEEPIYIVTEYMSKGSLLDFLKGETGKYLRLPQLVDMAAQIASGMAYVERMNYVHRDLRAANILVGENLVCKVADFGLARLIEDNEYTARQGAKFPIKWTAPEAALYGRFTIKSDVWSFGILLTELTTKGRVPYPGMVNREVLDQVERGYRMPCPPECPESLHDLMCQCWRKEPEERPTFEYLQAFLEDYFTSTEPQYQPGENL
Sequence of PDGFRA (P16234 24-1089): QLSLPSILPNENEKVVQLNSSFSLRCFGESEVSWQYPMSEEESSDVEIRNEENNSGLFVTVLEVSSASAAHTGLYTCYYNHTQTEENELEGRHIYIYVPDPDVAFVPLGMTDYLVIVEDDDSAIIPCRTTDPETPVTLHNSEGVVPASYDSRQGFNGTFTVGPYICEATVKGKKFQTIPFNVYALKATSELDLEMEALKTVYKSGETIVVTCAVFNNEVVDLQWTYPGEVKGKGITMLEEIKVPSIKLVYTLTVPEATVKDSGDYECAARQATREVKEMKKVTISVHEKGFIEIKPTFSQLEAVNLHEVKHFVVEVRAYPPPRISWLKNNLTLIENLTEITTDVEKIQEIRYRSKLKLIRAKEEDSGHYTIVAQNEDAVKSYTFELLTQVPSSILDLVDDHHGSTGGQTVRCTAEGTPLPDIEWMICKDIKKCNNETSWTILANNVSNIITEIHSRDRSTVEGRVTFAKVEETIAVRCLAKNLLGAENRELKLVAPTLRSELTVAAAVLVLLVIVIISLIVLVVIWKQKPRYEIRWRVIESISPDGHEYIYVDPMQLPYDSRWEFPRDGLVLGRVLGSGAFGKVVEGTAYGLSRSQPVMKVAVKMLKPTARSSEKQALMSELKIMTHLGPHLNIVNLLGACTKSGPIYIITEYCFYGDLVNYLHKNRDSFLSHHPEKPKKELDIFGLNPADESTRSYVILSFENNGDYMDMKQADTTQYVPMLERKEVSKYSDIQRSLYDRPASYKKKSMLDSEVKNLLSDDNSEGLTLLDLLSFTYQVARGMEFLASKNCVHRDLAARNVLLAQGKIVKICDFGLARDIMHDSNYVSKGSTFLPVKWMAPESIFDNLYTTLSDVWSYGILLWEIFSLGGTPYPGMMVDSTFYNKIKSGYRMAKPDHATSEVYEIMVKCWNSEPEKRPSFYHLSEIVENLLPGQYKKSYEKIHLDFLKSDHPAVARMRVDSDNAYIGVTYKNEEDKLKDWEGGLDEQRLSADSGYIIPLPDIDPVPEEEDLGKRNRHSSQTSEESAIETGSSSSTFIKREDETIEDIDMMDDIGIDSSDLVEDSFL
Sequence of FGFR1 (P11362 22-822): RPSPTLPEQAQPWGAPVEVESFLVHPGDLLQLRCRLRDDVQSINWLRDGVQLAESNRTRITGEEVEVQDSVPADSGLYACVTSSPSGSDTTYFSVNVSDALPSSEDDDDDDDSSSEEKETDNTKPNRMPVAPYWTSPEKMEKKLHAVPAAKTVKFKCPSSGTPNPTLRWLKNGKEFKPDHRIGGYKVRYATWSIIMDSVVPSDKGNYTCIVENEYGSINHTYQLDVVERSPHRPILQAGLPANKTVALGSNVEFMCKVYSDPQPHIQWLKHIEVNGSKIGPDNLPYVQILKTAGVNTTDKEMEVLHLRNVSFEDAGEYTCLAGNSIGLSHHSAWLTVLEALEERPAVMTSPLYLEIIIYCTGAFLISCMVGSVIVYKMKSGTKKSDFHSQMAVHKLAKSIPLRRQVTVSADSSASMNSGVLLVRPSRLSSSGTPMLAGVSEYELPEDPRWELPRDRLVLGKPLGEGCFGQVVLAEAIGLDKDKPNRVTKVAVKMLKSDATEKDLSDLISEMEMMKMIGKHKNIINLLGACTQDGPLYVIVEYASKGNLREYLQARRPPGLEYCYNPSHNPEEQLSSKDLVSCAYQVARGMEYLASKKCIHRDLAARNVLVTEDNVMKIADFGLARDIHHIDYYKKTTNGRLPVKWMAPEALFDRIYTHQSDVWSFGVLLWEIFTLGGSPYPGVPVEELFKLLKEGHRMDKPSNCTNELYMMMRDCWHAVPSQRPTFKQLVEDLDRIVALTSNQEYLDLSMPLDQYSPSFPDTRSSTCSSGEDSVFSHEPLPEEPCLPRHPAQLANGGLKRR
Sequence of FGFR3 (P22607 23-806): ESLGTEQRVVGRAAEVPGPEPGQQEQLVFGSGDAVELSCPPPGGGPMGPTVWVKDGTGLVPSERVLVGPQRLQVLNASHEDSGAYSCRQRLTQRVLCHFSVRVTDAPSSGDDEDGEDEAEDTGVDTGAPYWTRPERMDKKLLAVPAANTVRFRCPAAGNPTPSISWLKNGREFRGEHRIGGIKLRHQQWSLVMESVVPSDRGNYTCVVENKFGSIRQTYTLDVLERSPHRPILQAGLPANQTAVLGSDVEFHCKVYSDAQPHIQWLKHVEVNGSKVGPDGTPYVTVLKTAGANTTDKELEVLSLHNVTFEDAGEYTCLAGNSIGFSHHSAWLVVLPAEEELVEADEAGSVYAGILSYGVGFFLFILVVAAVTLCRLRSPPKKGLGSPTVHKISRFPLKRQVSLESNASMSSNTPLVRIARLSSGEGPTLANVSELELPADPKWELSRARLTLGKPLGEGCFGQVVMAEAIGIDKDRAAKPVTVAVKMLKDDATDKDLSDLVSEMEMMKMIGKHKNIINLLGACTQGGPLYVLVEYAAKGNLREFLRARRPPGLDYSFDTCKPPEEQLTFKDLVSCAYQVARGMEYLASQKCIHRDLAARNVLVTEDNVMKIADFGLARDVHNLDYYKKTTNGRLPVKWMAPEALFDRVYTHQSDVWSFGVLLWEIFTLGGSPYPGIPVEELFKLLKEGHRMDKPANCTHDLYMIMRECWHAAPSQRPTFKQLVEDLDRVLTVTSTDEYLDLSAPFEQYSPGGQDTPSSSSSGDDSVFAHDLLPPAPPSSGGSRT
Sequence of FGFR2 (P21802 22-821): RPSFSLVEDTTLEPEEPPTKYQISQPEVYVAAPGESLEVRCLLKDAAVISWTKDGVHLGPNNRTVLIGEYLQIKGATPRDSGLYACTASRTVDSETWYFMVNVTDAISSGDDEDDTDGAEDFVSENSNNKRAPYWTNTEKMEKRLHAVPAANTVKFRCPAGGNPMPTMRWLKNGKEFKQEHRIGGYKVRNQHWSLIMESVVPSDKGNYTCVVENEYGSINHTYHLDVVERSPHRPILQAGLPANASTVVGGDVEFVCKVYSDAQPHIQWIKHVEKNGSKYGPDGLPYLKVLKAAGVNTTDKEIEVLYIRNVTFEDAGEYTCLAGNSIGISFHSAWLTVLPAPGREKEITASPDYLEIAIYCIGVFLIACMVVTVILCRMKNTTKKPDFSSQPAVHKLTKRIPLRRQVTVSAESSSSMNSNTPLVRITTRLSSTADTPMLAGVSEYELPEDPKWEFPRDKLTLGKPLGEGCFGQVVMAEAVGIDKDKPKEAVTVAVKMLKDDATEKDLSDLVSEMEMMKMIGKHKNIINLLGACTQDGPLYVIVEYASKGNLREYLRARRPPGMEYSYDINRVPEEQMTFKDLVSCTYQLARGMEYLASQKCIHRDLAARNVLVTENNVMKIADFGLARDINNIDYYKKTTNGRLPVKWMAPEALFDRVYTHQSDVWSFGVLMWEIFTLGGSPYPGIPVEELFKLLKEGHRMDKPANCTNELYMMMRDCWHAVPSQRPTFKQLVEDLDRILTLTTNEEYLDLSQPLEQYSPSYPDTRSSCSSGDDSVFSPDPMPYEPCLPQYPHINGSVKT
Sequence of FGFR4 (P22455 22-802): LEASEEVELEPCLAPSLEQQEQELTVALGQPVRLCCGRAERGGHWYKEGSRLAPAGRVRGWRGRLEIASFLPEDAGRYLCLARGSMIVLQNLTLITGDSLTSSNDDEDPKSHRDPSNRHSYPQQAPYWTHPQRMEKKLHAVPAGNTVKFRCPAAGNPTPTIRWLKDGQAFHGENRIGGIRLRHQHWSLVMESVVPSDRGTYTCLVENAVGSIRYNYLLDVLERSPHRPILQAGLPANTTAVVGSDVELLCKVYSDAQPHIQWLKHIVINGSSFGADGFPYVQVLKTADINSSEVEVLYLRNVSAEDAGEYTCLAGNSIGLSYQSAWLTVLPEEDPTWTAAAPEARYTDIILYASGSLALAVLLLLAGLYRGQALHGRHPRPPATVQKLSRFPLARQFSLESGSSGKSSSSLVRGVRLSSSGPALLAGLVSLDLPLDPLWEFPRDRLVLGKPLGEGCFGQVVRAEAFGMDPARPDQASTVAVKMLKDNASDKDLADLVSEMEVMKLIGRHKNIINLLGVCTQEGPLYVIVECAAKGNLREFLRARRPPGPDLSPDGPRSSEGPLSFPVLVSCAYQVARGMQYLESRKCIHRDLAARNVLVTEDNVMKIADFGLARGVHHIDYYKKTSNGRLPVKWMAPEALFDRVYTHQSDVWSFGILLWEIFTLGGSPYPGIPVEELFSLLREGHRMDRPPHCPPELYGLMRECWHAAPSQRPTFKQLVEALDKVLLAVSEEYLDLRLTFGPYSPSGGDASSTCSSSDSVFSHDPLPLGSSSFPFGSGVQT

The term Emax denotes the greatest response seen or fitted, relative to the assay's reference. As to `NC(=O)c1ccc(-c2nc(-c3ccc4c(c3)OCO4)c(-c3ccccn3)[nH]2)cc1` [SB-431542], the IC50 against PDGFRB was more than 10000 nM; at FGFR3, more than 10000 nM; on FGFR1 it was more than 10000 nM; against PDGFRA, more than 10000 nM; with NMuMG cells [2] (Mus musculus, 96 h; NMuMG, TGFβ1 2 ng/ml plus compound, 4 days; parameter decreased by 50%; read-out: FA IC50 (focal adhesion formation)), 243 nM; in the data set on NMuMG cells [2] (Mus musculus, 96 h; NMuMG, TGFβ1 2 ng/ml plus compound, 4 days; parameter decreased by 50%; read-out: FN IC50 (fibronectin patch formation)), 195 nM. For the same molecule, the IC50 was 184 nM with NMuMG cells [2] (Mus musculus, 96 h; NMuMG, TGFβ1 2 ng/ml plus compound, 4 days; parameter decreased by 50%; read-out: SF IC50 (stress fibers)); approximately 200 nM with NMuMG cells [2] (Mus musculus; NMuMG, TGFβ treatment, proof of concept; read-out: IC50 in all three parameters (focal adhesion formation, stress fibers, fibronectin deposition)); more than 25000 nM with NMuMG cells [2] (Mus musculus; NMuMG; cell count decreased by 50% compared to DMSO control; read-out: Tox IC50); 388 nM in the data set on NMuMG cells [2] (Mus musculus; NMuMG; mean of IC50 values obtained for FA, SF, FN; read-out: EMT (FA/SF/FN) combined IC50); 584 nM in the data set with NMuMG cells [2] (Mus musculus; read-out: CCI IC50 (cell count increase)); more than 10000 nM on EGFR. Also, the IC50 is 156 nM with Py2T cells (Mus musculus, 96 h, Py2T, TGFβ plus compound, 4 days, read-out: FA IC50 (focal adhesions)); 167 nM in the data set with Py2T cells (Mus musculus, 96 h, Py2T, TGFβ plus compound, 4 days, read-out: FN IC50 (fibronectin patches)); 175 nM in the data set with Py2T cells (Mus musculus, 96 h, Py2T, TGFβ plus compound, 4 days, read-out: SF IC50 (stress fibers)); approximately 200 nM in the data set on Py2T cells (Mus musculus, Py2T, TGFβ-induced EMT, read-out: IC50 for reduction of EMT markers); 7460 nM with Py2T cells (Mus musculus, Py2T, cell count decreased by 50% compared to DMSO control, read-out: Tox IC50); 140 nM in the data set with Py2T cells (setting [5]). Moreover, the IC50 against SRC, against FGFR2 and at FGFR4 was more than 10000 nM throughout. Further, in data set [1], the “SMAD3 phosphorylation (p-SMAD3/GAPDH)” value is recorded as “blocked”. For the same molecule, the maximum response (Emax) in the data set with NMuMG cells [2] (Mus musculus; read-out: Emax (maximal effect on cell count)) and in the data set with Py2T cells (setting [6]) was 100% each time. Also, in the data set with NMuMG cells [3], the “effect on TGFβ-induced loss of E-cadherin and ZO1 from junctions and vimentin filament formation” value is on record as “completely blocked”.
With `CNC(=O)c1cc(Oc2ccc(NC(=O)Nc3ccc(Cl)c(C(F)(F)F)c3)cc2)ccn1` [Sorafenib], the IC50 was 2090 nM in the data set with NMuMG cells [2] (Mus musculus, 96 h, read-out: FA IC50 (focal adhesion formation)); 1350 nM in the data set with NMuMG cells [2] (Mus musculus, 96 h, read-out: FN IC50 (fibronectin patch formation)); 3930 nM in the data set on NMuMG cells [2] (Mus musculus, 96 h, read-out: SF IC50 (stress fibers)); 103 nM in the data set with NMuMG cells [2] (setting [5]); 2460 nM in the data set on NMuMG cells [2] (Mus musculus, read-out: EMT (FA/SF/FN) combined IC50); 12600 nM in the data set on NMuMG cells [2] (Mus musculus, read-out: Tox IC50). In addition, in the data set on NMuMG cells [2] (setting [6]), the Emax is 17.5%. The “effect on TGFβ-induced loss of E-cadherin and ZO1 from junctions and vimentin filament formation” value with NMuMG cells [3] is “only marginally stabilized”. In addition, the plasma protein binding in data set [4] was 99.7%.
For `C[C@@H](N)[C@H]1CC[C@H](C(=O)Nc2ccncc2)CC1.Cl.Cl` [Y-27632 2HCl], in [1], the “SMAD3 phosphorylation (p-SMAD3/GAPDH)” value was “unchanged”. Further, the IC50 was 2650 nM in the data set on NMuMG cells [2] (NMuMG, TGFβ1 2 ng/ml plus compound, 4 days; parameter decreased by 50%; read-out: FA IC50 (focal adhesion formation)); 1190 nM in the data set with NMuMG cells [2] (NMuMG, TGFβ1 2 ng/ml plus compound, 4 days; parameter decreased by 50%; read-out: FN IC50 (fibronectin patch formation)); 1310 nM in the data set with NMuMG cells [2] (NMuMG, TGFβ1 2 ng/ml plus compound, 4 days; parameter decreased by 50%; read-out: SF IC50 (stress fibers)); more than 25000 nM in the data set on NMuMG cells [2] (NMuMG; cell count decreased by 50% compared to DMSO control; read-out: Tox IC50); 1110 nM with NMuMG cells [2] (NMuMG; cell count increased by 50% compared to 100% with 10 μM SB-431542; read-out: CCI IC50 (cell count increase)); 1720 nM with NMuMG cells [2] (NMuMG; mean of IC50 values obtained for FA, SF, FN; read-out: EMT (FA/SF/FN) combined IC50). In addition, the IC50 with Py2T cells (Py2T, TGFβ plus compound, 4 days, read-out: FA IC50 (focal adhesions)) was 2150 nM; in the data set on Py2T cells (Py2T, TGFβ plus compound, 4 days, read-out: FN IC50 (fibronectin patches)) it was 4830 nM; in the data set on Py2T cells (Py2T, TGFβ plus compound, 4 days, read-out: SF IC50 (stress fibers)), 1710 nM; in the data set with Py2T cells (Py2T, cell count decreased by 50% compared to DMSO control, read-out: Tox IC50), more than 25000 nM; in the data set on Py2T cells (Py2T, compared to 10 μM SB-431542, read-out: CCI IC50 (cell count increase)), 770 nM; in the data set with ROCK, 430 nM. For the same molecule, the “Emax (maximal effect on cell count)” value is recorded as 17.6% in the data set on NMuMG cells [2] (NMuMG; compared to reference 10 μM SB-431542 = 100%) and 43.8% in the data set on Py2T cells (Py2T, compared to reference 10 μM SB-431542 = 100%).
